From patent US20060166900A1, “Salt of morphine-6-glucuronide” (CeNeS Limited, priority 2002, published 2006)

Assays:
Assay type in all cases: physicochemical
[1] = Water content by Karl Fisher analysis on storage (Example 3)
Procedure: Water content (% w/w) by Karl Fisher analysis
(§1) Each test material was stored between 2-8*C prior to placing on stability. Each material was sub-divided into 900 mg aliquots, transferred to brown opaque HDPE plastic bottles and flushed with Argon prior to sealing. Sufficient samples were provided for each time point as well as spares for each storage condition. The samples were placed in appropriate incubators previously commissioned at storage conditions 25° C./60% RH, 40° C./75% RH and 60° C.
Water Content by Karl Fisher Analysis
Water content was determined in duplicate on an aliquot of equilibrated material (approximately 100 mg) using a Tritrino 720 KFS Titrator.

[2] = Stability indicating HPLC assay and related substances on storage (Example 3)
Procedure: Assay (% w/w) and related substances determination
as §1
Testing Procedures Test for Identity Content and Impurities
Testing was performed in duplicate (2×25 mg) in accordance with a stability indicating HPLC assay method. The assay results were reported as M6G as is, M6G as the anhydrous, solvent free material and the anhydrous solvent free material corrected for the salt form using the relevant conversion factor.

[3] = Colour of solution by visible spectrophotometry on storage (Example 3); conditions: 5% w/v solution in water
Procedure: Colour of solution by UV spectrophotometry.
as §1
Colour by Visible Spectrophotometry
A 5% w/v solution of test material was prepared in water and the absorbance measured at 420 nm in a 1 cm silica cell using a Unicam UV4 Visible/UV spectrophotometer.

[4] = Visual appearance on storage (Example 3)
Procedure: as §1
The samples were stored for analysis according to the following table: […]

CN1CCC23c4c5ccc(O)c4OC2C(OC2OC(C(=O)O)C(O)C(O)C2O)C=CC3C1C5.CN1CCC23c4c5ccc(O)c4OC2C(OC2OC(C(=O)O)C(O)C(O)C2O)C=CC3C1C5.O=C(O)C=CC(=O)O (stereo not shown) [Morphine-6-glucuronide maleate]
Moisture ([1]; 1 month, 25° C./60% RH): 7.53 % w/w
Moisture ([1]; 1 month, 40° C./75% RH): 7.60 % w/w
Moisture ([1]; 1 month, 60° C.): 5.01 % w/w
Moisture ([1]; 3 months, 25° C./60% RH): 7.14 % w/w
Moisture ([1]; 3 months, 40° C./75% RH): 9.24 % w/w
Moisture ([1]; Initial): 6.14 % w/w
Known Related Substances HN33177 ([2]; 1 month, 25° C./60% RH): 0.76%
Known Related Substances HN67003 ([2]; 1 month, 25° C./60% RH): 0.17%
Known Related Substances HN75083 ([2]; 1 month, 25° C./60% RH): 0.05%
M6G Assay, Anhydrous basis ([2]; 1 month, 25° C./60% RH): 86.66 % w/w
M6G Assay, As is basis ([2]; 1 month, 25° C./60% RH): 80.27 % w/w
M6G Assay, Corrected for the salt form ([2]; 1 month, 25° C./60% RH): 97.56 % w/w
Total Known ([2]; 1 month, 25° C./60% RH): 0.98%
Total Related Substances ([2]; 1 month, 25° C./60% RH): 1.39%
Total Unknown ([2]; 1 month, 25° C./60% RH): 0.41%
Known Related Substances HN33177 ([2]; 1 month, 40° C./75% RH): 0.65%
Known Related Substances HN67003 ([2]; 1 month, 40° C./75% RH): 0.94%
Known Related Substances HN75076 ([2]; 1 month, 40° C./75% RH): 0.03%
Known Related Substances HN75083 ([2]; 1 month, 40° C./75% RH): 0.03%
Known Related Substances Morphine ([2]; 1 month, 40° C./75% RH): 0.12%
M6G Assay, Anhydrous basis ([2]; 1 month, 40° C./75% RH): 83.28 % w/w
M6G Assay, As is basis ([2]; 1 month, 40° C./75% RH): 77.07 % w/w
M6G Assay, Corrected for the salt form ([2]; 1 month, 40° C./75% RH): 93.75 % w/w
Total Known ([2]; 1 month, 40° C./75% RH): 1.77%
Total Related Substances ([2]; 1 month, 40° C./75% RH): 4.80%
Total Unknown ([2]; 1 month, 40° C./75% RH): 3.03%
Known Related Substances HN33177 ([2]; 1 month, 60° C.): 0.50%
Known Related Substances HN67003 ([2]; 1 month, 60° C.): 1.20%
Known Related Substances HN75076 ([2]; 1 month, 60° C.): 0.14%
Known Related Substances HN75083 ([2]; 1 month, 60° C.): 0.02%
Known Related Substances Morphine ([2]; 1 month, 60° C.): 0.32%
M6G Assay, Anhydrous basis ([2]; 1 month, 60° C.): 80.36 % w/w
M6G Assay, As is basis ([2]; 1 month, 60° C.): 76.46 % w/w
M6G Assay, Corrected for the salt form ([2]; 1 month, 60° C.): 90.47 % w/w
Total Known ([2]; 1 month, 60° C.): 2.18%
Total Related Substances ([2]; 1 month, 60° C.): 6.09%
Total Unknown ([2]; 1 month, 60° C.): 3.91%
Known Related Substances HN33177 ([2]; 3 months, 25° C./60% RH): 0.52%
Known Related Substances HN67003 ([2]; 3 months, 25° C./60% RH): 0.58%
Known Related Substances HN75083 ([2]; 3 months, 25° C./60% RH): 0.06%
Known Related Substances Morphine ([2]; 3 months, 25° C./60% RH): 0.04%
M6G Assay, Anhydrous basis ([2]; 3 months, 25° C./60% RH): 85.11 % w/w
M6G Assay, As is basis ([2]; 3 months, 25° C./60% RH): 80.04 % w/w
M6G Assay, Corrected for the salt form ([2]; 3 months, 25° C./60% RH): 95.81 % w/w
Total Known ([2]; 3 months, 25° C./60% RH): 1.20%
Total Related Substances ([2]; 3 months, 25° C./60% RH): 3.55%
Total Unknown ([2]; 3 months, 25° C./60% RH): 2.35%
Known Related Substances HN33177 ([2]; 3 months, 40° C./75% RH): 0.50%
Known Related Substances HN67003 ([2]; 3 months, 40° C./75% RH): 1.68%
Known Related Substances HN75076 ([2]; 3 months, 40° C./75% RH): 0.40%
Known Related Substances Morphine ([2]; 3 months, 40° C./75% RH): 0.43%
M6G Assay, Anhydrous basis ([2]; 3 months, 40° C./75% RH): 78.73 % w/w
M6G Assay, As is basis ([2]; 3 months, 40° C./75% RH): 72.37 % w/w
M6G Assay, Corrected for the salt form ([2]; 3 months, 40° C./75% RH): 88.63 % w/w
Total Known ([2]; 3 months, 40° C./75% RH): 3.01%
Total Related Substances ([2]; 3 months, 40° C./75% RH): 9.94%
Total Unknown ([2]; 3 months, 40° C./75% RH): 6.93%
drop in assay compared to the initial values ([2]; 3 months, 40° C./75% RH): around 10%
Known Related Substances HN33177 ([2]; Initial): 0.76%
Known Related Substances HN67003 ([2]; Initial): 0.04%
Known Related Substances HN75083 ([2]; Initial): 0.05%
M6G Assay, Anhydrous basis ([2]; Initial): 88.28 % w/w
M6G Assay, As is basis ([2]; Initial): 83.61 % w/w
M6G Assay, Corrected for the salt form ([2]; Initial): 99.40 % w/w
Total Known ([2]; Initial): 0.85%
Total Related Substances ([2]; Initial): 0.85%
Total Unknown ([2]; Initial): 0.00%
Colour ([3]; 1 month, 25° C./60% RH): 0.084 Abs@420 nm
Colour ([3]; 1 month, 40° C./75% RH): 0.297 Abs@420 nm
Colour ([3]; 1 month, 60° C.): 0.739 Abs@420 nm
Colour ([3]; 3 months, 25° C./60% RH): 0.209 Abs@420 nm
Colour ([3]; 3 months, 40° C./75% RH): 0.879 Abs@420 nm
Colour ([3]; Initial): 0.017 Abs@420 nm
Appearance ([4]; 1 month, 25° C./60% RH): White crystalline powder
Appearance ([4]; 1 month, 40° C./75% RH): Pale yellow crystalline powder
Appearance ([4]; 1 month, 60° C.): Yellow crystalline powder
Appearance ([4]; 3 months, 25° C./60% RH): Pale yellow crystalline powder
Appearance ([4]; 3 months, 40° C./75% RH): Yellow crystalline powder
Appearance ([4]; Initial): White crystalline powder
